In patent US20180050993A1, “NOVEL FLUORINATED DERIVATIVES AS EGFR INHIBITORS USEFUL FOR TREATING CANCERS” (Trillium Therapeutics Inc., priority 2015, published 2018):
Structures can show the parent of a compound that is named as a salt.

Columns and labels:
Experiment in all cases: NCI screening panel, growth %
Type in all cases: cell-based, human
[1] = tested on: SF-295; settings: CNS
Experimental: (§1) After 24 h, two plates of each cell line are fixed in situ with TCA, to represent a measurement of the cell population for each cell line at the time of drug addition (Tz). Experimental drugs are solubilised in dimethyl sulfoxide at 400-fold the desired final maximum test concentration and stored frozen prior to use. At the time of drug addition, an aliquot of frozen concentrate is thawed and diluted to twice the desired final maximum test concentration with complete medium containing 50 μg/ml gentamicin. Additional four, 10-fold or log serial dilutions are made to provide a total of five drug concentrations plus control. Aliquots of 100 μl of these different drug dilutions are added to the appropriate microtiter wells already containing 100 μl of medium, resulting in the required final drug concentrations.
(§2) Following drug addition, the plates are incubated for an additional 48 h at 37° C., 5% CO2, 95% air, and 100% relative humidity. For adherent cells, the assay is terminated by the addition of cold TCA (trichloroacetic acid). Cells are fixed in situ by the gentle addition of 50 μl of cold 50% (w/v) TCA (final concentration, 10% TCA) and incubated for 60 minutes at 4° C. The supernatant is discarded, and the plates are washed five times with tap water and air dried. Sulforhodamine B (SRB) solution (100 μl) at 0.4% (w/v) in 1% acetic acid is added to each well, and plates are incubated for 10 minutes at room temperature. After staining, unbound dye is removed by washing five times with 1% acetic acid and the plates are air dried. Bound stain is subsequently solubilised with 10 mM trizma base, and the absorbance is read on an automated plate reader at a wavelength of 515 nm. For suspension cells, the methodology is the same except that the assay is terminated by fixing settled cells at the bottom of the wells by gently adding 50 μl of 80% TCA (final concentration, 16% TCA). Using the seven absorbance measurements [time zero, […], control growth, (C), and test growth in the presence of drug at the five concentration levels (Ti)], the percentage growth is calculated at each of the drug concentration levels. Percentage growth inhibition is calculated as: [(Ti−Tz)/(C−Tz)]×100 for concentrations in which Ti>/=Tz and [(Ti−Tz)/Tz]×100 for concentrations in which Ti<Tz.
(§3) Three dose response parameters are calculated for each experimental agent. […] The drug concentration resulting in total growth inhibition (TGI) is calculated from Ti=Tz. […] Values are calculated for each of these three parameters if the level of activity is reached. However, if the effect is not reached or is exceeded, the value for that parameter is expressed as greater or less than the maximum or minimum concentration tested.

[2] = tested on: HCC-2998; settings: Colon
Experimental: as §1, §2, §3

[3] = tested on: SK-MEL-28; settings: Melanoma
Experimental: as §1, §2, §3

[4] = tested on: MDA-MB-435; settings: Melanoma
Experimental: as §1, §2, §3

[5] = tested on: NCI-H226; settings: NSCLC
Experimental: as §1, §2, §3

[6] = tested on: OVCAR-5; settings: Ovarian
Experimental: as §1, §2, §3

[7] = tested on: UACC-62; settings: Melanoma
Experimental: as §1, §2, §3

[8] = tested on: CAKI-1; settings: Renal
Experimental: as §1, §2, §3

[9] = tested on: OVCAR-4; settings: Ovarian
Experimental: as §1, §2, §3

[10] = tested on: EKVX; settings: NSCLC
Experimental: as §1, §2, §3

[11] = tested on: K-562; settings: Leukemia
Experimental: as §1, §2, §3

[12] = tested on: UO-31; settings: Renal
Experimental: as §1, §2, §3

[13] = tested on: MDA-MB-468; settings: Breast
Experimental: as §1, §2, §3

[14] = tested on: LOX IMVI; settings: Melanoma
Experimental: as §1, §2, §3

[15] = tested on: T-47D; settings: Breast
Experimental: as §1, §2, §3

[16] = tested on: HS 578T; settings: Breast
Experimental: as §1, §2, §3

[17] = tested on: HT29; settings: Colon
Experimental: as §1, §2, §3

[18] = tested on: HOP-62; settings: NSCLC
Experimental: as §1, §2, §3

[19] = tested on: MCF7; settings: Breast
Experimental: as §1, §2, §3

[20] = tested on: TK-10; settings: Renal
Experimental: as §1, §2, §3

[21] = tested on: U251; settings: CNS
Experimental: as §1, §2, §3

[22] = tested on: NCI-H322M; settings: NSCLC
Experimental: as §1, §2, §3

[23] = tested on: SW-620; settings: Colon
Experimental: as §1, §2, §3

[24] = tested on: BT-549; settings: Breast
Experimental: as §1, §2, §3

[25] = tested on: 786-0; settings: Renal
Experimental: as §1, §2, §3

[26] = tested on: COLO 205; settings: Colon
Experimental: as §1, §2, §3

[27] = tested on: OVCAR-8; settings: Ovarian
Experimental: as §1, §2, §3

[28] = tested on: SF-268; settings: CNS
Experimental: as §1, §2, §3

[29] = tested on: A498; settings: Renal
Experimental: as §1, §2, §3

[30] = tested on: DU-145; settings: Prostate
Experimental: as §1, §2, §3

[31] = tested on: SK-OV-3; settings: Ovarian
Experimental: as §1, §2, §3

[32] = tested on: NCI/ADR-RES; settings: Ovarian
Experimental: as §1, §2, §3

[33] = tested on: M14; settings: Melanoma
Experimental: as §1, §2, §3

[34] = tested on: CCRF-CEM; settings: Leukemia
Experimental: as §1, §2, §3

SMILES: Fc1ccc(Nc2ncnc3cc(OCCOC(F)F)c(OCCOC(F)F)cc23)c(F)c1Cl [Compound 2D•HCl, N-(3-chloro-2,4-difluoro-phenyl)-6,7-bis[2-(difluoromethoxy)ethoxy]quinazolin-4-amine]
- Growth % [1]: 76.73%
- Growth % [2]: 91.93%
- Growth % [3]: 81.10%
- Growth % [4]: 56.24%
- Growth % [5]: 84.65%
- Growth % [6]: 26.63%
- Growth % [7]: 82.70%
- Growth % [8]: 15.86%
- Growth % [9]: 0.00%
- Growth % [10]: 48.49%
- Growth % [11]: 37.37%
- Growth % [12]: 15.03%
- Growth % [13]: −39.62%
- Growth % [14]: 52.34%
- Growth % [15]: 19.78%
- Growth % [16]: 68.48%
- Growth % [17]: 58.66%
- Growth % [18]: 64.36%
- Growth % [19]: 66.06%
- Growth % [20]: 34.04%
- Growth % [21]: 72.65%
- Growth % [22]: −7.70%
- Growth % [23]: 91.49%
- Growth % [24]: 93.32%
- Growth % [25]: 60.48%
- Growth % [26]: 77.41%
- Growth % [27]: 69.11%
- Growth % [28]: 70.93%
- Growth % [29]: 13.11%
- Growth % [30]: 35.29%
- Growth % [31]: −13.36%
- Growth % [32]: 54.63%
- Growth % [33]: 59.47%
- Growth % [34]: 75.53%
